{
  "source": "paper PMC4681651",
  "about": "(Neuropharmacology, 2015)",
  "key": {"[1]": {"tested_on": "opiate receptor binding sites labeled by [^3H]-naloxone", "test": "[3H]-naloxone binding competition assay in rat forebrain membranes"}, "Sprague-Dawley rats [2]": {"tested_on": "Sprague-Dawley rats", "test": "Forced swim test", "assay_type": "in vivo", "conditions": "rat, three doses, 300 sec test"}, "[3]": {"tested_on": "129SvEv;C57Bl/6J F1 hybrid mice", "test": "Marble burying", "assay_type": "in vivo", "conditions": "mouse, 10 min before 15 min test"}, "rat α3β4 nAChRs": {"tested_on": "rat α3β4 nAChRs", "conditions": "2001, cited from earlier work; for block of rat α3β4 nAChR channels: ref Xiao et al."}, "Straub tail observation": {"test": "Straub tail observation", "assay_type": "in vivo", "conditions": "doses used in the behavioral studies"}, "[4]": {"conditions": "100 mg/kg, sc; ref Pohland et al., 1971; cited from earlier work"}, "[5]": {"tested_on": "129SvEv;C57Bl/6J F1 hybrid mice", "test": "Forced swim test", "assay_type": "in vivo, mouse", "conditions": "6 min test; for immobility time vs vehicle: mouse"}, "Sprague-Dawley rats [6]": {"tested_on": "Sprague-Dawley rats", "test": "Open field locomotor activity", "assay_type": "in vivo", "conditions": "rat, 30 min after injection, 10 min test"}, "human α3β4 nAChRs": {"molecular_target": "human α3β4 nAChRs (Homo sapiens, UniProt P30926+P32297)", "sequence (P32297 32-505)": "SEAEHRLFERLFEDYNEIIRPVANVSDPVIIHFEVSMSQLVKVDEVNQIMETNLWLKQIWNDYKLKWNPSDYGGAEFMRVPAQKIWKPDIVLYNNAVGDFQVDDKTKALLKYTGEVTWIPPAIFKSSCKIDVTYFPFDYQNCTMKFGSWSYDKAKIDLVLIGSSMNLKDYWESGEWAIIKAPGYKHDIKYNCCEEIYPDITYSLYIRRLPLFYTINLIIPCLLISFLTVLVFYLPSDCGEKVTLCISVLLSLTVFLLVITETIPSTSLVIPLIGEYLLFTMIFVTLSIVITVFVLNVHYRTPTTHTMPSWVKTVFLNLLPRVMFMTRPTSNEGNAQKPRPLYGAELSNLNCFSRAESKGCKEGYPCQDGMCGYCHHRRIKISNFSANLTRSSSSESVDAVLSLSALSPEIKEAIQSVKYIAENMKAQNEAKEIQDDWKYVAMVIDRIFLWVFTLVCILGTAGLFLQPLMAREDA", "sequence (P30926 22-498)": "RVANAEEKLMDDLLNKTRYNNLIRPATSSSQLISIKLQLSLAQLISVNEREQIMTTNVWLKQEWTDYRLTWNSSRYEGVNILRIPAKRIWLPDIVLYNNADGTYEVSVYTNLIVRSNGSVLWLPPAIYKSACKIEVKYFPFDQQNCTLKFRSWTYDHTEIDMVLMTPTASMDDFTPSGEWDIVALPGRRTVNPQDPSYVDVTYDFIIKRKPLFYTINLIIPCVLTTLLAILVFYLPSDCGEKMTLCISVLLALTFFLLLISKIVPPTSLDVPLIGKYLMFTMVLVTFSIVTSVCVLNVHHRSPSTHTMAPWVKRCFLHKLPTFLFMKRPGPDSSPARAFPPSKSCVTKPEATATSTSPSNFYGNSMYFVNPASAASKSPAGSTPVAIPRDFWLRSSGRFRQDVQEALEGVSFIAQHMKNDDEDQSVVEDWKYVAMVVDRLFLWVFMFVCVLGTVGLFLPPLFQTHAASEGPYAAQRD", "test": "86Rb+ efflux assay, block of nicotine-stimulated channel function"}, "[7]": {"tested_on": "129SvEv;C57Bl/6J F1 hybrid mice", "test": "Home cage locomotor activity", "assay_type": "in vivo", "conditions": "mouse, 0.5, 1, 5, 10 mg/kg i.p., 60 min"}, "Sprague-Dawley rats [8]": {"tested_on": "Sprague-Dawley rats", "assay_type": "in vivo", "conditions": "rat"}, "[9]": {"conditions": "[3H]-naloxone sites, rat forebrain"}},
  "note": "Values joined by “and” are separate entries in the source; they are usually repeats but may differ in a detail not shown here. Identical values can stand only once. Counter-ions that a name gives are not always drawn. Like-named read-outs stand apart in the source and are kept apart here.",
  "data": [
    {"molecule": "2-ethylidene-1,5,dimethyl-3,3-diphenylpyrrolidine perchlorate [EDDP]", "values": [
      {"measurement": "fold lower affinity than methadone", "setting": "[1]; [9]", "result": "~ 83 fold"},
      {"measurement": "fraction of binding sites competed for", "setting": "[1]; [9]", "result": "nearly all of the binding sites"},
      {"measurement": "immobile time vs vehicle", "setting": "Sprague-Dawley rats [2]; 10 mg/kg s.c.", "result": "without effect"},
      {"measurement": "marbles buried vs vehicle", "setting": "[3]; 5 mg/kg i.p.", "result": "buried significantly fewer marbles"},
      {"measurement": "marbles buried vs vehicle", "setting": "[3]; 10 mg/kg i.p.", "result": "did not reach statistical significance"},
      {"measurement": "block of rat α3β4 nAChR channels", "setting": "rat α3β4 nAChRs", "result": "potently block"},
      {"measurement": "Straub tail effects", "setting": "Straub tail observation", "result": "failed to observe any Straub tail effects"},
      {"measurement": "analgesia in the tail-flick assay", "setting": "[4]", "result": "neither compound produces analgesia"},
      {"measurement": "duration of immobility vs vehicle", "setting": "[5]; mouse, 1, 5, or 10 mg/kg i.p.", "result": "did not produce a significant effect on duration of immobility"},
      {"measurement": "open field locomotor activity", "setting": "Sprague-Dawley rats [6]; 10mg/kg s.c.", "result": "neither EDDP nor EMDP significantly altered open field locomotor activity"}
    ]},
    {"molecule": "CNC1=Nc2ccc(Cl)cc2C(c2ccccc2)=[N+]([O-])C1", "note": "[CDP, chlordiazepoxide HCl, reference compound]", "values": [
      {"measurement": "marbles buried vs vehicle", "setting": "[3]; 10 mg/kg i.p.", "result": "buried significantly fewer marbles"}
    ]},
    {"molecule": "CCC1=NC(C)CC1(c1ccccc1)c1ccccc1.Cl", "note": "(centres unmarked) [EMDP, 2-ethyl-5-methyl-3,3,-diphenyl-1-pyrroline hydrochloride]", "values": [
      {"measurement": "Ki", "setting": "[1]; 2 nM [3H]-naloxone, rat forebrain, single-site fit", "result": 21, "unit": "µM"},
      {"measurement": "fold lower affinity than methadone", "setting": "[1]; [9]", "result": "1900 fold and ~ 1900 fold"},
      {"measurement": "sites competed for", "setting": "[1]; even at a concentration of 100 μM", "result": 60, "unit": "%"},
      {"measurement": "immobile time vs vehicle", "setting": "Sprague-Dawley rats [2]; 10 mg/kg s.c.", "result": "reduced immobile time"},
      {"measurement": "immobile time vs vehicle", "setting": "Sprague-Dawley rats [2]; 20 mg/kg s.c.", "result": "reduced immobile time"},
      {"measurement": "marbles buried vs vehicle", "setting": "[3]; 1 mg/kg i.p.", "result": "not at the 1 mg/kg dose"},
      {"measurement": "marbles buried vs vehicle", "setting": "[3]; 5 mg/kg i.p.", "result": "buried significantly fewer marbles"},
      {"measurement": "marbles buried vs vehicle", "setting": "[3]; 10 mg/kg i.p.", "result": "buried significantly fewer marbles"},
      {"measurement": "potency relative to mecamylamine in blocking human α3β4 nAChRs", "setting": "human α3β4 nAChRs", "result": "only half as potent as mecamylamine"},
      {"measurement": "overall locomotor activity", "setting": "[7]", "result": "did not significantly affect overall locomotor activity"},
      {"measurement": "potency relative to mecamylamine in blocking rat α3β4 nAChRs", "setting": "rat α3β4 nAChRs; ref Xiao et al", "result": "only one-sixth as potent"},
      {"measurement": "block of rat α3β4 nAChR channels", "setting": "rat α3β4 nAChRs", "result": "potently block"},
      {"measurement": "Straub tail effects", "setting": "Straub tail observation", "result": "failed to observe any Straub tail effects"},
      {"measurement": "analgesia in the tail-flick assay", "setting": "[4]", "result": "neither compound produces analgesia"},
      {"measurement": "immobility time vs vehicle", "setting": "[5]; 5 mg/kg i.p.", "result": "did not affect immobility time"},
      {"measurement": "immobility time vs vehicle", "setting": "[5]; 10 mg/kg i.p.", "result": "significantly reduced it"},
      {"measurement": "ptosis over 3h observation", "setting": "Sprague-Dawley rats [8]; 20 mg/kg", "result": "ptosis was not apparent at any time"},
      {"measurement": "ptosis observed during forced swim tests", "setting": "Sprague-Dawley rats [8]; 10 and 20 mg/kg", "result": "did not produce ptosis"},
      {"measurement": "open field locomotor activity", "setting": "Sprague-Dawley rats [6]; 5mg/kg s.c.", "result": "neither EDDP nor EMDP significantly altered open field locomotor activity"}
    ]},
    {"molecule": "CNC1(C)C2CCC(C2)C1(C)C", "note": "(centres unmarked) [Mecamylamine, Mecamylamine HCl]", "values": [
      {"measurement": "immobile time vs vehicle", "setting": "Sprague-Dawley rats [2]; 5 mg/kg s.c.", "result": "reduced immobile time"},
      {"measurement": "onset of ptosis after injection", "setting": "Sprague-Dawley rats [8]; 5 mg/kg", "result": "≤ 15", "unit": "min"},
      {"measurement": "ptosis observed during forced swim tests", "setting": "Sprague-Dawley rats [8]; 5 mg/kg", "result": "obvious ptosis"},
      {"measurement": "ptosis over 3h observation", "setting": "Sprague-Dawley rats [8]; 5 mg/kg, significant at 30 and 45 min, not at 3 h", "result": "produced ptosis in a time-dependent manner"}
    ]},
    {"molecule": "CN[C@H]1CC[C@@H](c2ccc(Cl)c(Cl)c2)c2ccccc21", "note": "[sertraline, sertraline HCl, reference compound]", "values": [
      {"measurement": "immobile time vs vehicle", "setting": "Sprague-Dawley rats [2]; 20 mg/kg s.c.", "result": "significantly reduced immobile time"}
    ]}
  ]
}
